# Where a name gives a salt, the structure may show the parent alone.
# Target: T1, human cloned 5-HT6 receptors (Homo sapiens, UniProt P50406)
# T1 construct: expressed in transfected cells; host or cells: HeLa cells
# Assay: 5-HT6 binding affinity, [3H]-LSD displacement
# Conditions: membranes of Hela cells expressing human cloned 5-HT6 receptors; [3H]-LSD 3.0 nM; 120 minutes at room temperature
# T1 sequence (P50406 whole entry): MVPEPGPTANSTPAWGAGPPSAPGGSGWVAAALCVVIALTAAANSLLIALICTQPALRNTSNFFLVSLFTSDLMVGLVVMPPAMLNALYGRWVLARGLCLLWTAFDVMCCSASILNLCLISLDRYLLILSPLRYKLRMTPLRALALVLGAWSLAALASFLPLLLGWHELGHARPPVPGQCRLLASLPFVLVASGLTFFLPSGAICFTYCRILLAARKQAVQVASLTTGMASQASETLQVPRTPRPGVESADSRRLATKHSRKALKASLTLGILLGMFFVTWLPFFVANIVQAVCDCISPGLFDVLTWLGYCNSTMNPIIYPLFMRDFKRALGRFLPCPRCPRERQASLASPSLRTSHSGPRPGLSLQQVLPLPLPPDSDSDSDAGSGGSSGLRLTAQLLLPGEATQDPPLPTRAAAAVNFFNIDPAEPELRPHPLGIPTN
row,SMILES,Ki
1,"NCCC(=O)Nc1ccc2[nH]nc(S(=O)(=O)c3cccc4ccccc34)c2c1 [Example 158, 3-Amino-N-[3-(naphthalene-1-sulfonyl)-1H-indazol-5-yl]-propionamide hydrochloride]",0.01 to 10 nM
2,"CC(N)CNc1ccc2[nH]nc(S(=O)(=O)c3cccc4ccccc34)c2c1 (stereo not shown) [Example 159, N1-[3-(Naphthalene-1-sulfonyl)-1H-indazol-5-yl]-propane-1,2-diamine hydrochloride]",11 to 25 nM
3,"NCCNc1cccc2c(S(=O)(=O)c3cccc4ccccc34)n[nH]c12 [Example 161, N1-[3-(Naphthalene-1-sulfonyl)-1H-indazol-7-yl]-ethane-1,2-diamine dihydrochloride]",11 to 25 nM
4,"O=C(CCN1CCCCC1)Nc1cccc2c(S(=O)(=O)c3cccc4ccccc34)n[nH]c12 [Example 163, N-[3-(Naphthalene-1-sulfonyl)-1H-indazol-7-yl]-3-piperidin-1-yl-propionamide hydrochloride]",11 to 25 nM
5,"NCCC(=O)Nc1cccc2c(S(=O)(=O)c3cccc4ccccc34)n[nH]c12 [Example 164, 3-Amino-N-[3-(naphthalene-1-sulfonyl)-1H-indazol-7-yl]-propionamide hydrochloride]",0.01 to 10 nM
6,"NCCC(=O)Nc1ccc2c(S(=O)(=O)c3cccc4ccccc34)n[nH]c2c1 [Example 165, 3-Amino-N-[3-(naphthalene-1-sulfonyl)-1H-indazol-6-yl]-propionamide hydrochloride]",11 to 25 nM
7,"O=C(CCN1CCCCC1)Nc1ccc2c(S(=O)(=O)c3cccc4ccccc34)n[nH]c2c1 [Example 167, N-[3-(Naphthalene-1-sulfonyl)-1H-indazol-6-yl]-3-piperidin-1-yl-propionamide hydrochloride]",11 to 25 nM
8,"NCCNc1ccc2c(S(=O)(=O)c3cccc4ccccc34)n[nH]c2c1 [Example 170, N1-[3-(Naphthalene-1-sulfonyl)-1H-indazol-6-yl]-ethane-1,2-diamine dihydrochloride]",11 to 25 nM
9,"O=S(=O)(c1ccccc1)c1n[nH]c2c(CCNC3CC3)cccc12 [Example 172, N-{2-[3-(phenylsulfonyl)-1H-indazol-7-yl]ethyl}cyclopropanamine hydrochloride]",11 to 25 nM
10,"CNCCc1cccc2c(S(=O)(=O)c3ccccc3)n[nH]c12 [Example 173, N-Methyl-N-{2-[3-(phenylsulfonyl)-1H-indazol-7-yl]ethyl}amine trifluoroacetate]",0.01 to 10 nM
11,"CN(C)CCc1ccc2[nH]nc(S(=O)(=O)c3ccccc3)c2c1 [Example 176, N,N-Dimethyl-N-{2-[3-(phenylsulfonyl)-1H-indazol-5-yl]ethyl}amine hydrochloride]",11 to 25 nM
12,"O=S(=O)(c1ccccc1)c1n[nH]c2ccc(CCCNC3CC3)cc12 [Example 178, N{3-[3-(Phenylsulfonyl)-1H-indazol-5-yl]propyl}cyclopropanamine trifluoroacetate]",11 to 25 nM
13,"CC(C)NCCCc1ccc2[nH]nc(S(=O)(=O)c3ccccc3)c2c1 [Example 179, N-Isopropyl-N-{3-[3-(phenylsulfonyl)-1H-indazol-5-yl]propyl}amine trifluoroacetate]",> 45 nM
14,"NCCCc1ccc2[nH]nc(S(=O)(=O)c3ccccc3)c2c1 [Example 180, {3-[3-(Phenylsulfonyl)-1H-indazol-5-yl]propyl}amine trifluoroacetate]",11 to 25 nM
15,"NCCCCc1ccc2[nH]nc(S(=O)(=O)c3ccccc3)c2c1 [Example 181, {4-[3-(Phenylsulfonyl)-1H-indazol-5-yl]butyl}amine hydrochloride]",26 to 35 nM
16,"NCCCCc1ccc2[nH]nc(S(=O)(=O)c3cccc4ccccc34)c2c1 [Example 189, {4-[3-(Naphthylsulfonyl)-1H-indazol-5-yl]butyl}amine hydrochloride]",0.01 to 10 nM
17,"O=S(=O)(c1cccc2ccccc12)c1n[nH]c2ccc(CN3CCNCC3)cc12 [Example 195, 3-(1-Naphthylsulfonyl)-5-(piperazin-1-ylmethyl)-1H-indazole]",0.01 to 10 nM
18,CN1CCN(Cc2ccc3[nH]nc(S(=O)(=O)c4cccc5ccccc45)c3c2)CC1 [Example 196],0.01 to 10 nM
19,CC1CN(Cc2ccc3[nH]nc(S(=O)(=O)c4cccc5ccccc45)c3c2)CCN1 (stereo not shown) [Example 197],0.01 to 10 nM
20,CC1CN(Cc2ccc3[nH]nc(S(=O)(=O)c4cccc5ccccc45)c3c2)CC(C)N1 (stereo not shown) [Example 198],0.01 to 10 nM
21,C[C@H]1CN(Cc2ccc3[nH]nc(S(=O)(=O)c4cccc5ccccc45)c3c2)CCN1 [Example 199],11 to 25 nM

# Next, values leading:
row,Ki,SMILES
1,0.01 to 10 nM,"CN(C)CCC(=O)Nc1cccc2c(S(=O)(=O)c3cccc4ccccc34)n[nH]c12 [Example 162, 3-Dimethylamino-N-[3-(naphthalene-1-sulfonyl)-1H-indazol-7-yl]-propionamide hydrochloride]"
2,26 to 35 nM,"CCN(CC)CCC(=O)Nc1cccc2c(S(=O)(=O)c3cccc4ccccc34)n[nH]c12 [Example 166, 3-Diethylamino-N-[3-(naphthalene-1-sulfonyl)-1H-indazol-7-yl]-propionamide hydrochloride]"
3,36 to 45 nM,"CN(C)CCC(=O)Nc1ccc2c(S(=O)(=O)c3cccc4ccccc34)n[nH]c2c1 [Example 168, 3-Dimethylamino-N-[3-(naphthalene-1-sulfonyl)-1H-indazol-6-yl]-propionamide hydrochloride]"
4,> 45 nM,"CCN(CC)CCC(=O)Nc1ccc2c(S(=O)(=O)c3cccc4ccccc34)n[nH]c2c1 [Example 169, 3-Diethylamino-N-[3-(naphthalene-1-sulfonyl)-1H-indazol-6-yl]-propionamide hydrochloride]"
5,0.01 to 10 nM,"CN(C)CCc1cccc2c(S(=O)(=O)c3ccccc3)n[nH]c12 [Example 171, N,N-Dimethyl-N-{2-[3-(phenylsulfonyl)-1H-indazol-7-yl]ethyl}amine hydrochloride]"
6,11 to 25 nM,"CN(C)CCCc1ccc2[nH]nc(S(=O)(=O)c3ccccc3)c2c1 [Example 177, N,N-Dimethyl-N-{3-[3-(phenylsulfonyl)-1H-indazol-5-yl]propyl}amine trifluoroacetate]"
7,0.01 to 10 nM,"CN(C)CCCc1ccc2[nH]nc(S(=O)(=O)c3cccc4ccccc34)c2c1 [Example 182, N,N-Dimethyl-N-{3-[3-(naphthylsulfonyl)-1H-indazol-5-yl]propyl}amine hydrochloride]"
8,0.01 to 10 nM,C[C@@H]1CN(Cc2ccc3[nH]nc(S(=O)(=O)c4cccc5ccccc45)c3c2)CCN1 [Example 200]
9,0.01 to 10 nM,N[C@@H]1CCN(Cc2ccc3[nH]nc(S(=O)(=O)c4cccc5ccccc45)c3c2)C1 [Example 201]
10,> 45 nM,"O=C(c1ccc2[nH]nc(S(=O)(=O)c3cccc4ccccc34)c2c1)N1CCNCC1 [Example 202, 3-(1-Naphthylsulfonyl)-5-(piperazin-1 ylcarbonyl)-1H-indazole]"

# Test system: not given
# Assay: not given
# Conditions: not given
row,SMILES,melting point
1,CC1CN(Cc2ccc3[nH]nc(S(=O)(=O)c4cccc5ccccc45)c3c2)CCN1 (stereo not shown) (as salt: HCl) [Example 197],> 200 °C
2,"CCNCCOc1ccc2[nH]nc(S(=O)(=O)c3ccccc3)c2c1 (as salt: hydrochloride) [Example 4, [2-(3-Benzenesulfonyl-1H-indazol-5-yloxy)-ethyl]-ethyl-amine]",248 to 250 °C (dec.)
3,"CC(C)NCCOc1ccc2[nH]nc(S(=O)(=O)c3ccccc3)c2c1 (as salt: hydrochloride) [Example 6, [2-(3-Benzenesulfonyl-1H-indazol-5-yloxy)-ethyl]-isopropyl-amine]",275 to 277 °C (dec.)
4,"CCCCNCCOc1ccc2[nH]nc(S(=O)(=O)c3ccccc3)c2c1 (as salt: hydrochloride) [Example 7, [2-(3-Benzenesulfonyl-1H-indazol-5-yloxy)-ethyl]-butyl-amine]",271 to 273 °C (dec.)
5,"O=S(=O)(c1ccccc1)c1n[nH]c2ccc(OCCNC3CCCC3)cc12 (as salt: hydrochloride) [Example 9, 3-Benzenesulfonyl-5-(2-cyclopentyl-1-yl-ethoxy)-1H-indazole]",255 to 258 °C (dec.)
6,"NCCOc1ccc2[nH]nc(S(=O)(=O)c3ccccc3)c2c1 (as salt: hydrochloride) [Example 13, 2-(3-Benzenesulfonyl-1H-indazol-5-yloxy)-ethylamine]",> 300 °C

# Other lines, results leading:
row,melting point,SMILES
1,> 200 °C,"CN(C)CCOCc1ccc2[nH]nc(S(=O)(=O)c3cccc4ccccc34)c2c1 (as salt: HCl) [Example 156, N,N-Dimethyl-2-{[3-(1-naphthylsulfonyl)-1H-indazol-5-yl]methoxy}ethanamine]"
2,> 200 °C,CN1CCN(Cc2ccc3[nH]nc(S(=O)(=O)c4cccc5ccccc45)c3c2)CC1 (as salt: HCl) [Example 196]
3,> 200 °C,CC1CN(Cc2ccc3[nH]nc(S(=O)(=O)c4cccc5ccccc45)c3c2)CC(C)N1 (stereo not shown) (as salt: HCl) [Example 198]
4,178 to 181 °C,C[C@H]1CN(Cc2ccc3[nH]nc(S(=O)(=O)c4cccc5ccccc45)c3c2)CCN1 (as salt: HCl) [Example 199]
5,179 to 181 °C,C[C@@H]1CN(Cc2ccc3[nH]nc(S(=O)(=O)c4cccc5ccccc45)c3c2)CCN1 (as salt: HCl) [Example 200]
6,> 200 °C,N[C@@H]1CCN(Cc2ccc3[nH]nc(S(=O)(=O)c4cccc5ccccc45)c3c2)C1 (as salt: HCl) [Example 201]
7,249 to 250 °C,"O=S(=O)(c1ccccc1)c1n[nH]c2ccc(OCCN3CCCCC3)cc12 (as salt: hydrochloride) [Example 3, 3-Benzenesulfonyl-5-(2-piperidin-1-yl-ethoxy)-1H-indazole]"
8,184 to 185 °C (dec.),"O=S(=O)(c1ccccc1)c1n[nH]c2ccc(OCCNC3CC3)cc12 (as salt: hydrochloride) [Example 8, [2-(3-Benzenesulfonyl-1H-indazol-5-yloxy)-ethyl]-cyclopropyl-amine]"
9,272 to 274 °C (dec.),"CNCCOc1ccc2c(c1)c(S(=O)(=O)c1cccc3ccccc13)nn2C (as salt: hydrochloride) [Example 40, Methyl-{2-[1-methyl-3-(naphthalene-1-sulfonyl)-1H-indazol-5-yloxy]-ethyl}-amine]"

# Reference: patent US7723329B2, “Substituted-3-sulfonylindazole derivatives as 5-hydroxytryptamine-6 ligands” (Wyeth LLC, priority 2005, dated 2010)
